Tests used:
[1] = target: JAK1 kinase activity on STAT3 in TF1 cells (Homo sapiens, UniProt P23458); assay: pSTAT3 cell assay (MSD; TF1 cells, 30 ng/mL IL-6 stimulation); assay type: cell-based; details: 30 ng/mL IL-6, 15 minutes
Procedure, shortened: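 IC50 values derive from 4-parameter logistic fits of normalized pSTAT3 signal, measured by MSD with anti-STAT3 antibodies. TF1 cells, serum-starved beforehand, received compound for 1 hour (top concentration 10 μM, four-fold steps, 10 points) before a 15-minute IL-6 (30 ng/mL) stimulus.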

[2] = target: Tyk2 kinase activity on STAT4 in NK92 cells (Homo sapiens, UniProt P29597); assay: pSTAT4 cell assay (MSD; NK92 cells, 30 ng/mL IL2 stimulation); assay type: cell-based; details: 30 ng/mL IL2, 15 minutes
Chain of Tyk2 kinase activity on STAT4 in NK92 cells (P29597 whole entry): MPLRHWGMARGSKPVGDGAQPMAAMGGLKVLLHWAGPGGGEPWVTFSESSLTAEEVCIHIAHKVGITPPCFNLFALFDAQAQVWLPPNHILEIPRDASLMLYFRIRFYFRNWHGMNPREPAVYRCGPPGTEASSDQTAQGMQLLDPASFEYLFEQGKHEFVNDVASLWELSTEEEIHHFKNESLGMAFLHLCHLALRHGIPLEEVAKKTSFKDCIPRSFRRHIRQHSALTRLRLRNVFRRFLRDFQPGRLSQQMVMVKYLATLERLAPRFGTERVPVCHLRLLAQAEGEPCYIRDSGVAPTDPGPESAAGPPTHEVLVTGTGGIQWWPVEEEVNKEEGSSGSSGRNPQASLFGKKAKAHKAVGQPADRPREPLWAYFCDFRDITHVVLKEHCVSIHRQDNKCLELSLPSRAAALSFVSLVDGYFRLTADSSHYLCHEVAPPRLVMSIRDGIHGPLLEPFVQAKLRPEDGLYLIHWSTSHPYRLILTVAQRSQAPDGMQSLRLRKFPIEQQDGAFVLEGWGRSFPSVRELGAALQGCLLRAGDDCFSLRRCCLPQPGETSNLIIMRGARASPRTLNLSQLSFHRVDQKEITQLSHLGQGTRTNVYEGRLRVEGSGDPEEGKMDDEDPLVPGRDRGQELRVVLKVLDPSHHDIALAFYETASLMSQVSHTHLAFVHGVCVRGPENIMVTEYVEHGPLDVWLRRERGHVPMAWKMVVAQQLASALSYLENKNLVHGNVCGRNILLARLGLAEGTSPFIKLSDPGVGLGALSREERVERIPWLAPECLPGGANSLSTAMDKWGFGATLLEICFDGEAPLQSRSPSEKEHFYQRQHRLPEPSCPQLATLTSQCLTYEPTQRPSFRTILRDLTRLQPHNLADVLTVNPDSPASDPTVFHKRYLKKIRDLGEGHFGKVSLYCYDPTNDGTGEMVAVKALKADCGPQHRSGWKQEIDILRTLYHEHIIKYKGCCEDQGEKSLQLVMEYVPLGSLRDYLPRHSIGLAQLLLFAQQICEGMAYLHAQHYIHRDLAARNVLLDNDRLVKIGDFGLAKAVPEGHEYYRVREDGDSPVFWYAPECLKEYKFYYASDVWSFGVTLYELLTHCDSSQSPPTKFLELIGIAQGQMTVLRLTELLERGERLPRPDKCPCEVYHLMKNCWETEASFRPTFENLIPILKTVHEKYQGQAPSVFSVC
Procedure, shortened: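 Compound treatment of starved NK92 cells ran 1 hr before a 15-minute, 30 ng/mL IL2 pulse; lysates went to an MSD anti-STAT4 antibody assay, with curves fitted by 4-parameter logistic model.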

[3] = target: T1, human JAK2 kinase domain (JH1) (Homo sapiens, UniProt O60674); assay: JH1 biochemical assay for JAK2 (ADP-Glo kinase assay, recombinant JH1 catalytic domain, JAK3-974 peptide, 15 μM ATP)
T1 construct: recombinantly generated catalytic kinase (also known as JH1) domain of human JAK1, JAK2, JAK3 and TYK2
T1 sequence (O60674 849-1124 limits assumed): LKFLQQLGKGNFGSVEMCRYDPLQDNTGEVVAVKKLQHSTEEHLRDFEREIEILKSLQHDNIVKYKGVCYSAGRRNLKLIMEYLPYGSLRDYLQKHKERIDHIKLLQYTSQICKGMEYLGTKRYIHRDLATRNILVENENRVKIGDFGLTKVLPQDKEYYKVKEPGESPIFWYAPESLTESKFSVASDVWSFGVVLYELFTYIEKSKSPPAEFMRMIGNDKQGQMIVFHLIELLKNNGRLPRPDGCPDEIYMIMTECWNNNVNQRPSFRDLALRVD
Procedure, shortened: (§1)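 Compounds were titrated in 11 points of 3-fold dilution starting at 10 μM or 1 μM. Enzyme (JAK1 4 nM, JAK2 0.2 nM, JAK3 0.3 nM, TYK2 2 nM) and 50 μM peptide reacted for 100 minutes, followed by ADP-to-luminescence detection; IC50 by 4-parameter fit.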

[4] = target: JAK2 kinase activity on STAT5 in TF1 cells (Homo sapiens, UniProt O60674); assay: pSTAT5 cell assay (MSD; TF1 cells, 30 ng/mL IL-3 stimulation); assay type: cell-based; details: 30 ng/mL IL-3, 15 minutes
Chain of JAK2 kinase activity on STAT5 in TF1 cells (O60674 whole entry): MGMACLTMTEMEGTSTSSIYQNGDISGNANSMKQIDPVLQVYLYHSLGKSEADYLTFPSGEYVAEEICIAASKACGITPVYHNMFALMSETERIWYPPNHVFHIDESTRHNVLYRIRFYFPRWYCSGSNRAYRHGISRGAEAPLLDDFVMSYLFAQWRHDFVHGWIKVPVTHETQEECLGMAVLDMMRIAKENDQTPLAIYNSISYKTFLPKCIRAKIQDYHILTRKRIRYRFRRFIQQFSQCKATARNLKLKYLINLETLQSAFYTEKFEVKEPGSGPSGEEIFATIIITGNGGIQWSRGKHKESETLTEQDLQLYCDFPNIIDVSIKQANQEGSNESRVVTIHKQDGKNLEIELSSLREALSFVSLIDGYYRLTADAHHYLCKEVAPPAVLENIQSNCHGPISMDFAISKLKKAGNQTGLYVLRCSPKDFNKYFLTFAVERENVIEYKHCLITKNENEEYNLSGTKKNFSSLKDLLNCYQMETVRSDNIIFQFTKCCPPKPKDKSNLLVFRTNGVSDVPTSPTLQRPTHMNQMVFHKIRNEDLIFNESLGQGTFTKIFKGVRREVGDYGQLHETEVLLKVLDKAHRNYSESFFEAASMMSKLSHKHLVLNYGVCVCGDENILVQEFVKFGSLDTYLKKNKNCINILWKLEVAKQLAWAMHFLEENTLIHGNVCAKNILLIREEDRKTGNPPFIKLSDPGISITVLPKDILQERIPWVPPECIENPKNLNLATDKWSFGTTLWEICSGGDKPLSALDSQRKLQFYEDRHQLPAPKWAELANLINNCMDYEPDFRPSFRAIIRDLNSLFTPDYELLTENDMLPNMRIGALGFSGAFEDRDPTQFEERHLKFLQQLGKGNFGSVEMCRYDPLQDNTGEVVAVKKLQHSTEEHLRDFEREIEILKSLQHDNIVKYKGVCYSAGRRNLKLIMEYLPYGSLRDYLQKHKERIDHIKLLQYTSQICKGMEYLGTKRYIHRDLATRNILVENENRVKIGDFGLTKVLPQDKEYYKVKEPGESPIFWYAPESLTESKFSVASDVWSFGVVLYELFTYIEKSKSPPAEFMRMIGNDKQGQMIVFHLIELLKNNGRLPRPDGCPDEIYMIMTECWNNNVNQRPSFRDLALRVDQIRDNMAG
Procedure, shortened: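 IC50 from a 4-parameter logistic fit of normalized pSTAT5 signal, measured by MSD in lysates of TF1 cells. Cells were serum-starved, exposed to compound for 1 h (top concentration 10 μM, four-fold, 10 points), then given IL-3 at 30 ng/mL for 15 min.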

[5] = target: T2, human JAK3 kinase domain (JH1) (Homo sapiens, UniProt P52333); assay: JH1 biochemical assay for JAK3 (ADP-Glo kinase assay, recombinant JH1 catalytic domain, JAK3-974 peptide, 4 μM ATP)
T2 construct: recombinantly generated catalytic kinase (also known as JH1) domain of human JAK1, JAK2, JAK3 and TYK2
T2 sequence (P52333 822-1111 limits assumed): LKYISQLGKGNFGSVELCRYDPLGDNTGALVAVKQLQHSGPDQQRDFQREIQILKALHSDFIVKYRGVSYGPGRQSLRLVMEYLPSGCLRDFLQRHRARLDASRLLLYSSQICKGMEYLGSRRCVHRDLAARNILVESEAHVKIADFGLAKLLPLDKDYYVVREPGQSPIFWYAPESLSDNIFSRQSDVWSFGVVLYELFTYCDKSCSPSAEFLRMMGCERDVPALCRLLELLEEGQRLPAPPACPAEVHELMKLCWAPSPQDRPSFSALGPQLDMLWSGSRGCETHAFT
Procedure, shortened: as §1

[6] = target: T3, human JAK1 kinase domain (JH1) (Homo sapiens, UniProt P23458); assay: JH1 biochemical assay for JAK1 (ADP-Glo kinase assay, recombinant JH1 catalytic domain, JAK3-342 peptide, 35 μM ATP)
T3 construct: recombinantly generated catalytic kinase (also known as JH1) domain of human JAK1, JAK2, JAK3 and TYK2
T3 sequence (P23458 875-1153 limits assumed): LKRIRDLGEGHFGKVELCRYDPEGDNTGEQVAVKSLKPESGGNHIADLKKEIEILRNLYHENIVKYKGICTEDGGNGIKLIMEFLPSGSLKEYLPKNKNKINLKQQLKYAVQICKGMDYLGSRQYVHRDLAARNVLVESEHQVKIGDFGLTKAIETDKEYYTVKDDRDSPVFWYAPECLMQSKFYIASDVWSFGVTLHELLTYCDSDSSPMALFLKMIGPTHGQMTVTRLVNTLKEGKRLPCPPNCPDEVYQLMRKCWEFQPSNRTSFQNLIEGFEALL
Procedure, shortened: as §1

[7] = target: T4, human TYK2 kinase domain (JH1) (Homo sapiens, UniProt P29597); assay: JH1 biochemical assay for TYK2 (ADP-Glo kinase assay, recombinant JH1 catalytic domain, JAK3-974 peptide, 10 μM ATP)
T4 construct: recombinantly generated catalytic kinase (also known as JH1) domain of human JAK1, JAK2, JAK3 and TYK2
T4 sequence (P29597 897-1176 limits assumed): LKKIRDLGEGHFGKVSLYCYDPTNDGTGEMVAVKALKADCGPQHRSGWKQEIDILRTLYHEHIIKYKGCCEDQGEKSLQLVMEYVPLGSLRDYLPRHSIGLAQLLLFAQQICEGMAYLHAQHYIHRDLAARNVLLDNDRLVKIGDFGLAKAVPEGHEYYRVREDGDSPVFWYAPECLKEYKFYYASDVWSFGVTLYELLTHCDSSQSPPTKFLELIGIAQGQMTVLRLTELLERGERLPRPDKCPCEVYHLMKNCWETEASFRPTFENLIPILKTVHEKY
Procedure, shortened: as §1

Chain of JAK1 kinase activity on STAT3 in TF1 cells (P23458 whole entry): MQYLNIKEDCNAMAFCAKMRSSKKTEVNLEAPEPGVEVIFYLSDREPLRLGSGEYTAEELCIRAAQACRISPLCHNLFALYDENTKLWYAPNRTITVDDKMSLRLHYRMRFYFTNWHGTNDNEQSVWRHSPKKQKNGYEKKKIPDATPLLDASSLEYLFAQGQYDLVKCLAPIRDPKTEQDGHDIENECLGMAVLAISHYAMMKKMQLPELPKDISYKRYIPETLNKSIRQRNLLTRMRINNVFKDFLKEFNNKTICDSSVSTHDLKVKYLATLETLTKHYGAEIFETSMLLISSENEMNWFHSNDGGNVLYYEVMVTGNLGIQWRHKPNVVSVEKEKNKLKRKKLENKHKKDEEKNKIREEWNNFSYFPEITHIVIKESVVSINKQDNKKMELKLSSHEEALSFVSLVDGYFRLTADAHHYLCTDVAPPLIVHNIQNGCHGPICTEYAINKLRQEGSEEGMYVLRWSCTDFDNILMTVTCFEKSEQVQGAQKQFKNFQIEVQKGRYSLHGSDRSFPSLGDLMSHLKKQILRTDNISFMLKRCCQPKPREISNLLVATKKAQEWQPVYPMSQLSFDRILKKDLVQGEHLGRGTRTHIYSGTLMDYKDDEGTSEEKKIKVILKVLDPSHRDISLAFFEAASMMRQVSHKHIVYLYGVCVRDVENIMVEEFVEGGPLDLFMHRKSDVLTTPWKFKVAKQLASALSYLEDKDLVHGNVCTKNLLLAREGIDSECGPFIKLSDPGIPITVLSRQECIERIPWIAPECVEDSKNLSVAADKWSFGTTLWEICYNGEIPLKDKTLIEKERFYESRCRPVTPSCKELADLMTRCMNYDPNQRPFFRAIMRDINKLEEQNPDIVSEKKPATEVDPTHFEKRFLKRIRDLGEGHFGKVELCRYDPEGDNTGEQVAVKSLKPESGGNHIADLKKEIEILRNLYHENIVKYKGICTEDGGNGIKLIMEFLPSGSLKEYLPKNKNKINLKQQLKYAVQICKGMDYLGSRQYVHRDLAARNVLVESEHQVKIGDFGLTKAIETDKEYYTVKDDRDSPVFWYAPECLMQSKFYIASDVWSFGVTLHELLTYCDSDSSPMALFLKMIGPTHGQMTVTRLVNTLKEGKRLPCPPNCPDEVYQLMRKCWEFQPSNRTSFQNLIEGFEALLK

SMILES	IC50 [1]	IC50 [2]	IC50 ([3]; JH1 kinase domain, ADP-Glo)	IC50 [4]	IC50 ([5]; JH1 kinase domain, ADP-Glo)	IC50 ([6]; JH1 kinase domain, ADP-Glo)	IC50 ([7]; JH1 kinase domain, ADP-Glo)	IC50 ([3]; JAK2 JH1, ADP-Glo)	IC50 ([5]; JAK3 JH1, ADP-Glo)	IC50 ([6]; JAK1 JH1, ADP-Glo)	IC50 ([7]; TYK2 JH1, ADP-Glo)
C[C@@H]1CN(c2nc(-c3cnc4c(c3)CCC(=O)N4)cn3nccc23)C(=O)[C@]1(C#N)C1CC1 [Example 204, (3R,4S)-3-cyclopropyl-4-methyl-2-oxo-1-(6-(7-oxo-5,6,7,8-tetrahydro-1,8-naphthyridin-3-yl)pyrazolo[1,5-a]pyrazin-4-yl)pyrrolidine-3-carbonitrile]	1 to 5 µM	0.05 to 0.1 µM	< 0.1 µM	1 to 5 µM	< 0.1 µM	< 0.1 µM	< 0.005 µM				
C[C@@H]1CN(c2nc(-c3cnn(C)c3)cn3ncc(Cl)c23)C(=O)[C@]1(C#N)C1CC1 [Example 206, (3R,4S)-1-(3-chloro-6-(1-methyl-1H-pyrazol-4-yl)pyrazolo[1,5-a]pyrazin-4-yl)-3-cyclopropyl-4-methyl-2-oxopyrrolidine-3-carbonitrile]	> 10 µM	> 0.1 µM	0.1 to 1 µM	> 10 µM	0.1 to 1 µM	0.1 to 1 µM	0.005 to 0.02 µM				
C[C@@H]1CN(c2nc(-c3cnn(C45CC(C4)C5)c3)cn3ncc(F)c23)C(=O)[C@]1(C#N)C1CC1 [Example 207, (3R,4S)-1-(6-(1-(bicyclo[1.1.1]pentan-1-yl)-1H-pyrazol-4-yl)-3-fluoropyrazolo[1,5-a]pyrazin-4-yl)-3-cyclopropyl-4-methyl-2-oxopyrrolidine-3-carbonitrile]	0.1 to 1 µM	0.05 to 0.1 µM	0.1 to 1 µM	1 to 5 µM	< 0.1 µM	< 0.1 µM	< 0.005 µM				
Cc1nn(C)cc1-c1cn2nccc2c(N2C[C@@H](C)[C@@](C#N)(C3CC3)C2=O)n1 [Example 208, (3R,4S)-3-cyclopropyl-1-(6-(1,3-dimethyl-1H-pyrazol-4-yl)pyrazolo[1,5-a]pyrazin-4-yl)-4-methyl-2-oxopyrrolidine-3-carbonitrile]	1 to 5 µM	0.05 to 0.1 µM	< 0.1 µM	1 to 5 µM	< 0.1 µM	< 0.1 µM	< 0.005 µM				
Cc1nc(C)c(-c2cn3nccc3c(N3C[C@@H](C)[C@@](C#N)(C4CC4)C3=O)n2)s1 [Example 209, (3R,4S)-3-cyclopropyl-1-(6-(2,4-dimethylthiazol-5-yl)pyrazolo[1,5-a]pyrazin-4-yl)-4-methyl-2-oxopyrrolidine-3-carbonitrile]	1 to 5 µM	> 0.1 µM	0.1 to 1 µM	5 to 10 µM	< 0.1 µM	< 0.1 µM	0.005 to 0.02 µM				
C[C@@H]1CN(c2nc(-c3ccc(=O)n(C(F)F)c3)cn3nccc23)C(=O)[C@]1(C#N)C1CC1 [Example 210, (3R,4S)-3-cyclopropyl-1-(6-(1-(difluoromethyl)-6-oxo-1,6-dihydropyridin-3-yl)pyrazolo[1,5-a]pyrazin-4-yl)-4-methyl-2-oxopyrrolidine-3-carbonitrile]	1 to 5 µM	> 0.1 µM	0.1 to 1 µM	5 to 10 µM	< 0.1 µM	< 0.1 µM	< 0.005 µM				
Cc1nc(-c2cn3nccc3c(N3C[C@@H](C)[C@@](C#N)(C4CC4)C3=O)n2)cs1 [Example 214, (3R,4S)-3-cyclopropyl-4-methyl-1-(6-(2-methylthiazol-4-yl)pyrazolo[1,5-a]pyrazin-4-yl)-2-oxopyrrolidine-3-carbonitrile]	1 to 5 µM	> 0.1 µM	0.1 to 1 µM	5 to 10 µM	0.1 to 1 µM	0.1 to 1 µM	0.005 to 0.02 µM				
C[C@@H]1CN(c2nc(-c3cnn(C4CCCC4)c3)cn3ncc(F)c23)C(=O)[C@]1(C#N)C1CC1 [Example 217, (3R,4S)-1-(6-(1-cyclopentyl-1H-pyrazol-4-yl)-3-fluoropyrazolo[1,5-a]pyrazin-4-yl)-3-cyclopropyl-4-methyl-2-oxopyrrolidine-3-carbonitrile]	0.1 to 1 µM	> 0.1 µM	< 0.1 µM	1 to 5 µM	< 0.1 µM	< 0.1 µM	< 0.005 µM				
C[C@@H]1CN(c2nc(-c3cnn(C4CCCCC4)c3)cn3ncc(F)c23)C(=O)[C@]1(C#N)C1CC1 [Example 219, (3R,4S)-1-(6-(1-cyclohexyl-1H-pyrazol-4-yl)-3-fluoropyrazolo[1,5-a]pyrazin-4-yl)-3-cyclopropyl-4-methyl-2-oxopyrrolidine-3-carbonitrile]	0.1 to 1 µM	0.05 to 0.1 µM		0.1 to 1 µM				< 0.1 µM	< 0.1 µM	< 0.1 µM	< 0.005 µM

Continued, values first:

IC50 [1]	IC50 [2]	IC50 ([3]; JH1 kinase domain, ADP-Glo)	IC50 [4]	IC50 ([5]; JH1 kinase domain, ADP-Glo)	IC50 ([6]; JH1 kinase domain, ADP-Glo)	IC50 ([7]; JH1 kinase domain, ADP-Glo)	IC50 ([3]; JAK2 JH1, ADP-Glo)	IC50 ([5]; JAK3 JH1, ADP-Glo)	IC50 ([6]; JAK1 JH1, ADP-Glo)	IC50 ([7]; TYK2 JH1, ADP-Glo)	SMILES
1 to 5 µM	> 0.1 µM	< 0.1 µM	5 to 10 µM	< 0.1 µM	< 0.1 µM	< 0.005 µM					C[C@@H]1CN(c2nc(-c3cnc4c(c3)CC(=O)N4)cn3nccc23)C(=O)[C@]1(C#N)C1CC1 [Example 205, (3R,4S)-3-cyclopropyl-4-methyl-2-oxo-1-(6-(2-oxo-2,3-dihydro-1H-pyrrolo[2,3-b]pyridin-5-yl)pyrazolo[1,5-a]pyrazin-4-yl)pyrrolidine-3-carbonitrile]
1 to 5 µM	0.05 to 0.1 µM	0.1 to 1 µM	1 to 5 µM	< 0.1 µM	< 0.1 µM	< 0.005 µM					[2H]C([2H])([2H])n1cc(-c2cn3ncc(F)c3c(N3C[C@@H](C)[C@@](C#N)(C4CC4)C3=O)n2)cn1 [Example 211, (3R,4S)-3-cyclopropyl-1-(3-fluoro-6-(1-(methyl-d3)-1H-pyrazol-4-yl)pyrazolo[1,5-a]pyrazin-4-yl)-4-methyl-2-oxopyrrolidine-3-carbonitrile]
0.1 to 1 µM	0.05 to 0.1 µM	< 0.1 µM	0.1 to 1 µM	< 0.1 µM	< 0.1 µM	< 0.005 µM					C[C@@H]1CN(c2nc(-c3cnc4c(c3)CCN4)cn3nccc23)C(=O)[C@]1(C#N)C1CC1 [Example 215, (3R,4S)-3-cyclopropyl-1-(6-(2,3-dihydro-1H-pyrrolo[2,3-b]pyridin-5-yl)pyrazolo[1,5-a]pyrazin-4-yl)-4-methyl-2-oxopyrrolidine-3-carbonitrile]
0.1 to 1 µM	0.05 to 0.1 µM		0.1 to 1 µM				< 0.1 µM	< 0.1 µM	< 0.1 µM	< 0.005 µM	C[C@@H]1CN(c2nc(-c3cnn(C4CCOCC4)c3)cn3ncc(F)c23)C(=O)[C@]1(C#N)C1CC1 [Example 218, (3R,4S)-3-cyclopropyl-1-(3-fluoro-6-(1-(tetrahydro-2H-pyran-4-yl)-1H-pyrazol-4-yl)pyrazolo[1,5-a]pyrazin-4-yl)-4-methyl-2-oxopyrrolidine-3-carbonitrile]
